Measurements taken from patent US20240124418A1 (BioTheryX, Inc., priority 2020, published 2024).

Experiments:
TNF-α = test: Cell-based TNF-α inhibition assay (LPS-induced PBMCs, Meso Scale); conditions: PBMC, PBMCs pretreated 1 h, LPS 100 ng/mL 18-24 h, percentage of stimulated DMSO control; for inhibition at 0.1 µM: compound concentration 0.1 μM; for inhibition at 1 µM: compound concentration 1 μM
Procedure, shortened: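 Thawed primary PBMCs (200,000 cells/well, RPMI 1640 with 10% FBS) were pretreated with compound for 1 h, then stimulated with 100 ng/mL LPS for 18–24 h. Supernatant TNF-α was measured by Meso Scale, and activity was expressed as percent inhibition relative to the stimulated DMSO control.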

PDE4B = target: T1, PDE4B (Homo sapiens, UniProt Q07343); test: Protein degradation assay, western blot, PDE4B in A549 cells; assay type: cell-based; conditions: 24 h treatment, 'as high as about' = upper value for the group, read-out: PDE4B degradation relative to DMSO
T1 construct: endogenous in cells; host or cells: A549
T1 sequence (Q07343 whole entry): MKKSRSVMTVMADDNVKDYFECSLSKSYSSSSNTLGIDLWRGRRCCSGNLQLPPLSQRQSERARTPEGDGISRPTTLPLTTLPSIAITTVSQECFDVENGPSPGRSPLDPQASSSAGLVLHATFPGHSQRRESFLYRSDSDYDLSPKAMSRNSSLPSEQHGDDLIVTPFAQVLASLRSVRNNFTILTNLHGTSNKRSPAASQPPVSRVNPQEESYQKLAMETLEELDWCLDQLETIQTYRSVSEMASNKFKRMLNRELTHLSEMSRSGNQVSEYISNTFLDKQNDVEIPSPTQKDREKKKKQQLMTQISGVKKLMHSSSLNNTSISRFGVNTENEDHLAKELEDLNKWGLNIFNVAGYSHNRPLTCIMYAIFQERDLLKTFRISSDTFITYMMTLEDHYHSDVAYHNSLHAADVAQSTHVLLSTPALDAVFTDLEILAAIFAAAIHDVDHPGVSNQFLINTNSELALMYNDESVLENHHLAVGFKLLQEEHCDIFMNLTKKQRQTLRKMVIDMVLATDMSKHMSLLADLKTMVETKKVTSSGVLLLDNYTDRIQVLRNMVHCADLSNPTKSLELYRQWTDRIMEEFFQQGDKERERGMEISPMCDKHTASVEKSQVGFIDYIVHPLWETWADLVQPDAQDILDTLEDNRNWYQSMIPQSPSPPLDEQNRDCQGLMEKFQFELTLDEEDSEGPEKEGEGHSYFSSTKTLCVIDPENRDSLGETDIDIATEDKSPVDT
Description: Example B2. Protein Degradation Assay
A549 cells were grown in RPMI 1640 media supplemented with 10% fetal bovine serum, streptomycin, and penicillin. The cells were plated in 6-well plates at 300,000 cells/well in the growth media. After overnight incubation, the cells were treated with DMSO (control) or a compound at predetermined concentrations (e.g., 10 nM, 100 nM, 1 μM, 3 μM, or 10 μM) for 24 h at 37° C. under 5% CO2. Whole cell extracts were prepared using an immunoprecipitation (IP) lysis buffer. The cells were washed once in PBS, and the cell pellets were resuspended in the IP lysis buffer and incubated for 15 min on ice. Cells debris was removed by centrifugation and the cleared whole cell lysates were transferred to new tubes for further analysis.
For a western blot analysis, the whole cell protein extracts were separated on 4-12% SDS-polyacrylamide gels, transferred to nitrocellulose, and probed with primary antibodies. Membranes were subsequently washed and probed with IRDYE® secondary antibodies. The signals were detected using an ODYSSEY® Imaging System. The antibodies used in the assay included anti-PDE4B antibody; anti-PDE4D antibodies (top, bottom, and short isoform); β-actin mouse monoclonal antibody; IRDYE® 680RD goat anti-rabbit antibody; and IRDYE® 800CW goat anti-mouse antibody. The compounds provided herein are PDE4 protein degraders.

CCOc1cc([C@@H](CS(C)(=O)=O)N2C(=O)c3cccc(NC(=O)CCCCCCCCN4CCC(c5cc(F)cc6c5CN(C5CCC(=O)NC5=O)C6=O)CC4)c3C2=O)ccc1OC (stereo partly drawn) [Compound A13, 9-(4-(2-(2,6-Dioxopiperidin-3-yl)-6-fluoro-1-oxoisoindolin-4-yl)piperidin-1-yl)-N-(2-((S)-1-(3-ethoxy-4-methoxyphenyl)-2-(methylsulfonyl)ethyl)-1,3-dioxoisoindolin-4-yl)nonanamide]
inhibition at 0.1 µM (TNF-α): ≥ 60%
Dmax (PDE4B): ≤ 70%

CCOc1cc([C@@H](CS(C)(=O)=O)N2C(=O)c3cccc(NC(=O)CCCCCCCCC4CCN(c5cccc6c5C(=O)N(C5CCC(=O)NC5=O)C6=O)CC4)c3C2=O)ccc1OC (stereo partly drawn) [Compound A15, 9-{1-[2-(2,6-Dioxopiperidin-3-yl)-1,3-dioxo-2,3-dihydro-1H-isoindol-4-yl]piperidin-4-yl}-N-{2-[(1S)-1-(3-ethoxy-4-methoxyphenyl)-2-methanesulfonylethyl]-1,3-dioxo-2,3-dihydro-1H-isoindol-4-yl}nonanamide]
inhibition at 0.1 µM (TNF-α): 40 to 60%
inhibition at 1 µM (TNF-α): ≥ 60%
Dmax (PDE4B): ≤ 70%

CCOc1cc([C@@H](CS(C)(=O)=O)N2C(=O)c3cccc(NC(=O)CCCCCCCCN4CCC(C#Cc5cc6c(cc5F)C(=O)N(C5CCC(=O)NC5=O)C6)CC4)c3C2=O)ccc1OC (stereo partly drawn) [Compound A20, 9-(4-{2-[2-(2,6-Dioxopiperidin-3-yl)-6-fluoro-1-oxo-2,3-dihydro-1H-isoindol-5-yl]ethynyl}piperidin-1-yl)-N-{2-[(1S)-1-(3-ethoxy-4-methoxyphenyl)-2-methanesulfonylethyl]-1,3-dioxo-2,3-dihydro-1H-isoindol-4-yl}nonanamide]
inhibition at 0.1 µM (TNF-α): ≥ 60%
inhibition at 1 µM (TNF-α): ≥ 60%
Dmax (PDE4B): ≤ 70%

CCOc1cc([C@@H](CS(C)(=O)=O)N2C(=O)c3cccc(NC(=O)CCCCCCCN4CCC(c5cc6c(cc5F)C(=O)N(C5CCC(=O)NC5=O)C6)CC4)c3C2=O)ccc1OC (stereo partly drawn) [Compound A22, 8-{4-[2-(2,6-Dioxopiperidin-3-yl)-6-fluoro-1-oxo-2,3-dihydro-1H-isoindol-5-yl]piperidin-1-yl}-N-{2-[(1S)-1-(3-ethoxy-4-methoxyphenyl)-2-methanesulfonylethyl]-1,3-dioxo-2,3-dihydro-1H-isoindol-4-yl}octanamide]
inhibition at 0.1 µM (TNF-α): ≥ 60%
inhibition at 1 µM (TNF-α): ≥ 60%
Dmax (PDE4B): ≤ 70%

CCOc1cc([C@@H](CS(C)(=O)=O)N2C(=O)c3cccc(NC(=O)CC4CN(Cc5ccc(OCc6scc7c6CN(C6CCC(=O)NC6=O)C7=O)cc5)CCO4)c3C2=O)ccc1OC (stereo partly drawn) [Compound A40, 2-{4-[(4-{[5-(2,6-Dioxopiperidin-3-yl)-4-oxo-4H,5H,6H-thieno[3,4-c]pyrrol-1-yl]methoxy}phenyl)methyl]morpholin-2-yl}-N-{2-[(1S)-1-(3-ethoxy-4-methoxyphenyl)-2-methanesulfonylethyl]-1,3-dioxo-2,3-dihydro-1H-isoindol-4-yl}acetamide]
inhibition at 0.1 µM (TNF-α): ≥ 60%
inhibition at 1 µM (TNF-α): ≥ 60%
Dmax (PDE4B): ≤ 70%

CCOc1cc([C@@H](CS(C)(=O)=O)N2C(=O)c3cccc(NC(=O)CCOCCOCCNCc4ccc(OCc5scc6c5CN(C5CCC(=O)NC5=O)C6=O)cc4)c3C2=O)ccc1OC (stereo partly drawn) [Compound A41, 3-[2-(2-{[(4-{[5-(2,6-Dioxopiperidin-3-yl)-4-oxo-4H,5H,6H-thieno[3,4-c]pyrrol-1-yl]methoxy}phenyl)methyl]amino}ethoxy)ethoxy]-N-{2-[(1S)-1-(3-ethoxy-4-methoxyphenyl)-2-methanesulfonylethyl]-1,3-dioxo-2,3-dihydro-1H-isoindol-4-yl}propanamide]
inhibition at 0.1 µM (TNF-α): 40 to 60%
inhibition at 1 µM (TNF-α): ≥ 60%
Dmax (PDE4B): ≤ 70%

CCOc1cc([C@@H](CS(C)(=O)=O)N2C(=O)c3cccc(NC(=O)CCCc4ccc(CCNCc5ccc(OCc6scc7c6CN(C6CCC(=O)NC6=O)C7=O)cc5)cc4)c3C2=O)ccc1OC (stereo partly drawn) [Compound A42, 4-[4-(2-{[(4-{[5-(2,6-Dioxopiperidin-3-yl)-4-oxo-4H,5H,6H-thieno[3,4-c]pyrrol-1-yl]methoxy}phenyl)methyl]amino}ethyl)phenyl]-N-{2-[(1S)-1-(3-ethoxy-4-methoxyphenyl)-2-methanesulfonylethyl]-1,3-dioxo-2,3-dihydro-1H-isoindol-4-yl}butanamide]
inhibition at 0.1 µM (TNF-α): ≥ 60%
inhibition at 1 µM (TNF-α): ≥ 60%
Dmax (PDE4B): ≤ 70%

CCOc1cc([C@@H](CS(C)(=O)=O)N2C(=O)c3cccc(NC(=O)CCCCCCCCCCNCc4ccc(OCc5scc6c5CN(C5CCC(=O)NC5=O)C6=O)cc4)c3C2=O)ccc1OC (stereo partly drawn) [Compound A43, 11-{[(4-{[5-(2,6-Dioxopiperidin-3-yl)-4-oxo-4H,5H,6H-thieno[3,4-c]pyrrol-1-yl]methoxy}phenyl)methyl]amino}-N-{2-[(1S)-1-(3-ethoxy-4-methoxyphenyl)-2-methanesulfonylethyl]-1,3-dioxo-2,3-dihydro-1H-isoindol-4-yl}undecanamide]
inhibition at 0.1 µM (TNF-α): ≥ 60%
inhibition at 1 µM (TNF-α): ≥ 60%
Dmax (PDE4B): ≤ 70%

CCOc1cc([C@@H](CS(C)(=O)=O)N2C(=O)c3cccc(NCCCCCCCCCNCc4ccc(OCc5scc6c5CN(C5CCC(=O)NC5=O)C6=O)cc4)c3C2=O)ccc1OC (stereo partly drawn) [Compound A44, 4-[(9-{[(4-{[5-(2,6-Dioxopiperidin-3-yl)-4-oxo-4H,5H,6H-thieno[3,4-c]pyrrol-1-yl]methoxy}phenyl)methyl]amino}nonyl)amino]-2-[(1S)-1-(3-ethoxy-4-methoxyphenyl)-2-methanesulfonylethyl]-2,3-dihydro-1H-isoindole-1,3-dione]
inhibition at 0.1 µM (TNF-α): ≥ 60%
inhibition at 1 µM (TNF-α): ≥ 60%
Dmax (PDE4B): ≤ 70%

O=C1CCC(N2Cc3c(cc(F)cc3C3CCN(CCCCCCCOc4cc(C(=O)Nc5c(Cl)cncc5Cl)ccc4OC(F)F)CC3)C2=O)C(=O)N1 (centres unmarked) [Compound B1, N-(3,5-Dichloropyridin-4-yl)-4-(difluoromethoxy)-3-((7-(4-(2-(2,6-dioxopiperidin-3-yl)-6-fluoro-1-oxoisoindolin-4-yl)piperidin-1-yl)heptyl)oxy)benzamide]
inhibition at 0.1 µM (TNF-α): < 20%
inhibition at 1 µM (TNF-α): < 20%
Dmax (PDE4B): ≤ 70%

O=C1CCC(N2Cc3c(NCCCOCCOCCOCCOc4ccc(C(=O)Nc5c(Cl)cncc5Cl)cc4OCC4CC4)cccc3C2=O)C(=O)N1 (centres unmarked) [Compound B9, 3-(Cyclopropylmethoxy)-N-(3,5-dichloropyridin-4-yl)-4-(2-(2-(2-(3-((2-(2,6-dioxopiperidin-3-yl)-1-oxoisoindolin-4-yl)amino)propoxy)ethoxy)ethoxy)ethoxy)benzamide]
inhibition at 0.1 µM (TNF-α): ≥ 60%
inhibition at 1 µM (TNF-α): ≥ 60%
Dmax (PDE4B): ≤ 70%

O=C1CCC(N2Cc3c(cc(F)cc3C3CCN(CCCCCCCOc4ccc(C(=O)Nc5c(Cl)cncc5Cl)cc4OCC4CC4)CC3)C2=O)C(=O)N1 (centres unmarked) [Compound B10, 3-(Cyclopropylmethoxy)-N-(3,5-dichloropyridin-4-yl)-4-((7-(4-(2-(2,6-dioxopiperidin-3-yl)-6-fluoro-1-oxoisoindolin-4-yl)piperidin-1-yl)heptyl)oxy)benzamide]
inhibition at 0.1 µM (TNF-α): 20 to 40%
inhibition at 1 µM (TNF-α): ≥ 60%
Dmax (PDE4B): ≤ 70%

O=C1CCC(N2Cc3c(cc(F)cc3C3CCN(CCCOc4cc(C(=O)Nc5c(Cl)cncc5Cl)ccc4OC(F)F)CC3)C2=O)C(=O)N1 (centres unmarked) [Compound B11, N-(3,5-Dichloropyridin-4-yl)-4-(difluoromethoxy)-3-(3-(4-(2-(2,6-dioxopiperidin-3-yl)-6-fluoro-1-oxoisoindolin-4-yl)piperidin-1-yl)propoxy)benzamide]
inhibition at 0.1 µM (TNF-α): ≥ 60%
inhibition at 1 µM (TNF-α): ≥ 60%
Dmax (PDE4B): ≤ 70%

O=C1CCC(N2C(=O)c3cccc(N4CCC(CCCCCCCOc5cc(C(=O)Nc6c(Cl)cncc6Cl)ccc5OC(F)F)CC4)c3C2=O)C(=O)N1 (centres unmarked) [Compound B14, N-(3,5-Dichloropyridin-4-yl)-4-(difluoromethoxy)-3-((7-(1-(2-(2,6-dioxo-piperidin-3-yl)-1,3-dioxoisoindolin-4-yl)piperidin-4-yl)heptyl)oxy)benzamide]
inhibition at 0.1 µM (TNF-α): ≥ 60%
inhibition at 1 µM (TNF-α): ≥ 60%
Dmax (PDE4B): ≤ 70%

O=C1CCC(N2Cc3cc(C4CCN(CCOc5cc(C(=O)Nc6c(Cl)cncc6Cl)ccc5OC(F)F)CC4)c(F)cc3C2=O)C(=O)N1 (centres unmarked) [Compound B15, N-(3,5-Dichloropyridin-4-yl)-4-(difluoromethoxy)-3-(2-{4-[2-(2,6-dioxo-piperidin-3-yl)-6-fluoro-1-oxo-2,3-dihydro-1H-isoindol-5-yl]piperidin-1-yl}ethoxy)benzamide]
inhibition at 0.1 µM (TNF-α): ≥ 60%
inhibition at 1 µM (TNF-α): ≥ 60%
Dmax (PDE4B): ≤ 70%

O=C1CCC(Nc2cccc(NC(=O)CN3CCN(CCOc4cc(C(=O)Nc5c(Cl)cncc5Cl)ccc4OC(F)F)CC3)c2)C(=O)N1 (centres unmarked) [Compound B24, N-(3,5-Dichloropyridin-4-yl)-4-(difluoromethoxy)-3-(2-(4-(2-((3-((2,6-dioxopiperidin-3-yl)amino)phenyl)amino)-2-oxoethyl)piperazin-1-yl)ethoxy)benzamide]
inhibition at 0.1 µM (TNF-α): ≥ 60%
inhibition at 1 µM (TNF-α): ≥ 60%
Dmax (PDE4B): ≤ 70%
